Read-outs that look alike come from different tables or passages of the source.
Columns and labels:
[1] = cited from earlier work
[2] = tested on: human umbilical cord-derived CD34+ cells; details: apoptosis induced by nitric oxide (NO) or serum deprivation; cited from earlier work
transplanted stem cells = details: injection shortly after marrow cell graft; cited from earlier work
[3] = tested on: hematopoietic stem cells (HSCs); test: Ex vivo treatment of HSCs prior to transplant, engraftment of donor HSCs; assay type: in vivo; details: bone marrow cells incubated with 10 μM at 4° C. for one hour, then transplanted into allogeneic subject
Description: Bone marrow cells containing HSCs are obtained directly by removal from the hip of a donor subject using a needle and syringe. The heterogeneous mixture of bone marrow cells is transferred to two separate tissue culture flasks, and a suitable growth medium is provided.
262 μl of a 10 mM solution of 16,16-dimethyl PGE2 in DMSO is added to the cells in the first tissue culture flask, to a final working concentration of 10 μM of 16,16-dimethyl PGE2. The same amount of DMSO without agent is added to the second flask as a control, and the cells in both flasks are incubated at 4° C. (e.g., in an ice bath) for one hour. The 16,16-dimethyl PGE2 is at least 90% pure as measured by HPLC, and is produced by good manufacturing practice (GMP).
After incubation of the HSCs in the ice bath, the cells from each flask are administered to separate, but otherwise genetically identical subjects. These subjects are both allogeneic to the donor cells. The subjects are then observed for engraftment of the donor HSCs, using markers that are specific for the donor cells.

[4] = Stability of 16,16-dimethyl PGE2 formulation, storage at −20° C.; assay type: physicochemical; details: for Assay (% LC): 10 mM in DMSO, 2 ml glass vial; for Purity (%): stability
Description: (§1) 16,16-dimethyl PGE2 and its related substances were separated on a Phenomenex, Synergi Hydro RP 4μ HPLC column with gradient elution conditions and detected at 205 nm. The assay of 16,16-dimethyl PGE2 was determined by comparing the 16,16-dimethyl PGE2 peak area of the test samples with that of a reference standard of known concentration and purity. The levels of the impurities and degradation products were determined from the peak area ratio of each individual impurity to the total peak area of the 16,16-dimethyl PGE2 and all impurities and degradation products. The identify of 16,16-dimethyl PGE2 was confirmed by comparing the retention time of the main peak of the test sample against that in the reference standard.
(§2) Stability tests were performed on formulations of 16,16-dimethyl PGE2 stored at either −80° C. or −20° C. for up to six months. These clinical formulations were composed of 10 mM 16,16-dimethyl PGE2 in […] DMSO, and were stored in a 2 ml Type I clear glass vial with a 13 mm West 4432/50 Teflon coated stopper. The results are shown in Tables 3 (−80° C.) and 4 (−20° C.) below.

[5] = Stability of 16,16-dimethyl PGE2 formulation, storage at −80° C.; assay type: physicochemical; details: for Assay (% LC): 10 mM in DMSO, 2 ml glass vial; for Purity (%): stability
Description: as §1, §2

dendritic cell (DC) = details: ex vivo or in vitro; withdrawal of growth factors or ceramide; cited from earlier work
[6] = tested on: murine embryonic stem cell; details: cited from earlier work
hepatic stellate cells = details: cited from earlier work

CCCCC[C@@H](/C=C/[C@H]1[C@H](OC)CC(=O)[C@@H]1C/C=C\CCCC(=O)O)OC [ONO-AE-248]
effect on core temperature (Tc) ([1]; 20 nmol): increased the Tc

CCCC[C@H](C)C[C@H](O)/C=C/[C@H]1[C@H](O)CC(=O)[C@@H]1CC(=O)C1CCC(C(=O)O)CC1 (stereo partly drawn) [ONO-DI-004]
effect on core temperature (Tc) ([1]; in vivo): increase the core temperature (Tc) in a dose-dependent manner

CCCC(=O)Nc1ncnc2c1ncn2[C@@H]1O[C@@H]2COP(=O)(O)O[C@H]2[C@H]1OC(=O)CCC [dibutyryl-cAMP, dibutyryl cyclic adenosine 3′,5′-monophosphate]
survival of CD34+ cells [2]: promote survival
entry of transplanted stem cells into S phase (transplanted stem cells): triggers the transplanted stem cells into entering S phase

O[C@@H]1[C@@H]2OP(O)(=S)OC[C@H]2O[C@H]1n1cnc2cc(Cl)c(Cl)cc21 (stereo partly drawn) [BIMPS, sp-5,6-DCl-BIMPS]
survival of CD34+ cells [2]: promote survival

CCCCC(C)(C)[C@H](O)/C=C/[C@H]1[C@H](O)CC(=O)[C@@H]1C/C=C\CCCC(=O)O [16,16-dimethyl PGE2]
number of engrafted HSC donor cells versus control-treated cells [3]: significantly greater number of engrafted HSC donor cells
Assay (% LC) ([4]; 1 Month): 98.7 % LC
Assay (% LC) ([4]; 2 Months): 97.4 % LC
Assay (% LC) ([4]; 3 Months): 98.8 % LC
Assay (% LC) ([4]; 6 Months): 97.5 % LC
Assay (% LC) ([4]; Time Zero): 98.1 % LC
Product Appearance ([4]; 1 Month): conforms
Total Related Substances (%) ([4]; 1 Month): 5.22%
pH ([4]; 1 Month): 4.8
Product Appearance ([4]; 2 Months): conforms
Total Related Substances (%) ([4]; 2 Months): 5.52%
pH ([4]; 2 Months): 4.7
Product Appearance ([4]; 3 Months): conforms
Total Related Substances (%) ([4]; 3 Months): 5.54%
pH ([4]; 3 Months): 4.6
Product Appearance ([4]; 6 Months): conforms
Total Related Substances (%) ([4]; 6 Months): 5.95%
pH ([4]; 6 Months): 4.6
Product Appearance ([4]; Time Zero): conforms
Total Related Substances (%) ([4]; Time Zero): 5.52%
pH ([4]; Time Zero): 4.5
Purity (%) ([4]; 1 Month): 94.8%
Purity (%) ([4]; 2 Months): 94.5%
Purity (%) ([4]; 3 Months): 94.5%
Purity (%) ([4]; 6 Months): 94.0%
Purity (%) ([4]; Time Zero): 94.5%
Assay (% LC) ([5]; 1 Month): 98.5 % LC
Assay (% LC) ([5]; 2 Months): 97.7 % LC
Assay (% LC) ([5]; 3 Months): 98.5 % LC
Assay (% LC) ([5]; 6 Months): 98.6 % LC
Assay (% LC) ([5]; Time Zero): 98.1 % LC
Product Appearance ([5]; 1 Month): conforms
Total Related Substances (%) ([5]; 1 Month): 5.33%
pH ([5]; 1 Month): 4.8
Product Appearance ([5]; 2 Months): conforms
Total Related Substances (%) ([5]; 2 Months): 5.51%
pH ([5]; 2 Months): 4.7
Product Appearance ([5]; 3 Months): conforms
Total Related Substances (%) ([5]; 3 Months): 5.35%
pH ([5]; 3 Months): 4.8
Product Appearance ([5]; 6 Months): conforms
Total Related Substances (%) ([5]; 6 Months): 5.51%
pH ([5]; 6 Months): 4.7
Product Appearance ([5]; Time Zero): conforms
Total Related Substances (%) ([5]; Time Zero): 5.52%
pH ([5]; Time Zero): 4.5
Purity (%) ([5]; 1 Month): 94.7%
Purity (%) ([5]; 2 Months): 94.5%
Purity (%) ([5]; 3 Months): 94.7%
Purity (%) ([5]; 6 Months): 94.5%
Purity (%) ([5]; Time Zero): 94.5%

CC(C)NCC(O)c1ccc(O)c(O)c1 (stereo not drawn) [isoproterenol]
entry of transplanted stem cells into S phase (transplanted stem cells): triggers the transplanted stem cells into entering S phase

CCCCC[C@H](O)/C=C/[C@H]1[C@H](O)CC(=O)[C@@H]1C/C=C\CCCC(=O)O [PGE2, Prostaglandin E2]
protection of DC against apoptosis (dendritic cell (DC)): protects DC
amplification of multipotent progenitors [6]: cause amplification of multipotent progenitors
mitogenesis of hepatic stellate cells (hepatic stellate cells): inhibits the mitogenesis
